Source: US6667312B2, “Thioether substituted imidazoquinolines” (3M Innovative Properties Company, priority 2000, dated 2003)

Tests used:
interferon (α) = assay: Cytokine Induction in Human Cells: interferon; type: cell-based; conditions: human PBMC, 18 to 24 hours, tested 30-0.014 μM, interferon (α) by ELISA; read-out: Lowest Effective Concentration (μM) Interferon
Excerpt: (§1) An in vitro human blood cell system is used to assess cytokine induction. Activity is based on the measurement of interferon and tumor necrosis factor (α) (IFN and TNF, respectively) secreted into culture media as described by Testerman et. al. In “Cytokine Induction by the Immunomodulators Imiquimod and S-27609”, Journal of Leukocyte Biology, 58, 365-372 (September, 1995).
(§2) Whole blood from healthy human donors is collected by venipuncture into EDTA vacutainer tubes. Peripheral blood mononuclear cells (PBMC) are separated from whole blood by density gradient centrifugation using Histopaque®-1077. Blood is diluted 1:1 with Dulbecco's Phosphate Buffered Saline (DPBS) or Hank's Balanced Salts Solution (HBSS). The PBMC layer is collected and washed twice with DPBS or HBSS and resuspended at 4×10^6 cells/mL in RPMI complete. The PBMC suspension is added to 48 well flat bottom sterile tissue culture plates (Costar, Cambridge, Mass. or Becton Dickinson Labware, Lincoln Park, N.J.) containing an equal volume of RPMI complete media containing test compound.
(§3) The compounds are solubilized in dimethyl sulfoxide (DMSO). The DMSO concentration should not exceed a final concentration of 1% for addition to the culture wells. The compounds are generally tested at concentrations ranging from 30-0.014 μM.
(§4) The solution of test compound is added at 60 μM to the first well containing RPMI complete and serial 3 fold dilutions are made in the wells. The PBMC suspension is then added to the wells in an equal volume, bringing the test compound concentrations to the desired range (30-0.014 μM). The final concentration of PBMC suspension is 2×10^6 cells/mL. The plates are covered with sterile plastic lids, mixed gently and then incubated for 18 to 24 hours at 37° C. in a 5% carbon dioxide atmosphere.
(§5) Following incubation the plates are centrifuged for 10 minutes at 1000 rpm (˜200× g) at 4° C. The cell-free culture supernatant is removed with a sterile polypropylene pipet and transferred to sterile polypropylene tubes. Samples are maintained at −30 to −70° C. until analysis. The samples are analyzed for interferon (α) by ELISA and for tumor necrosis factor (α) by ELISA or IGEN Assay
Interferon (α) concentration is determined by ELISA using a Human Multi-Species kit from PBL Biomedical Laboratories, New Brunswick, N.J. Results are expressed in pg/mL.
(§6) The table below lists the lowest concentration found to induce interferon and the lowest concentration found to induce tumor necrosis factor for each compound.

[1] = test system: tumor necrosis factor (α); assay: Cytokine Induction in Human Cells: tumor necrosis factor; type: cell-based; set-up: key to Lowest Effective Concentration (μM) Tumor Necrosis Factor: A “*” indicates that no induction was seen at any of the tested concentrations; conditions: human PBMC, 18 to 24 hours, tested 30-0.014 μM, TNF by ELISA or IGEN assay; for minimal effective concentration: read-out: Lowest Effective Concentration (μM) Tumor Necrosis Factor
Excerpt: as §1, §2, §3, §4, §5
Tumor necrosis factor (α) (TNF) concentration is determined using ELISA kits available from Biosource International, Camarillo, Calif. Alternately, the TNF concentration can be determined by Origen® M-Series Immunoassay and read on an IGEN M-8 analyzer from IGEN International, Gaithersburg, Md. The immunoassay uses a human TNF capture and detection antibody pair from Biosource International, Camarillo, Calif. Results are expressed in pg/mL.
as §6

SMILES	minimal effective concentration (interferon (α)) [µM]	minimal effective concentration [1] [µM]	melting point [°C]	Lowest Effective Concentration (μM) Tumor Necrosis Factor [1]
COCCc1nc2c(N)nc3ccccc3c2n1CCCCCS(C)(=O)=O [Example 16, 2-(2-methoxyethyl)-1-[5-(methylsulfonyl)pentyl]-1H-imidazo[4,5-c]quinolin-4-amine]	0.01	0.04	158 to 160	
CCCCc1nc2c(N)nc3ccccc3c2n1CCCCCSC [Example 17, 2-butyl-1-[5-(methylthio)pentyl]-1H-imidazo[4,5-c]quinolin-4-amine]	0.01	0.04	112 to 114	
CCc1nc2c(N)nc3ccccc3c2n1CCCCS(C)(=O)=O [Example 29, 2-ethyl-1-[4-(methylsulfonyl)butyl]-1H-imidazo[4,5-c]quinolin-4-amine]	0.12	3.33	182 to 185	
CCCCc1nc2c(N)nc3ccccc3c2n1CCCCSc1ccccc1 [Example 1, 2-butyl-1-[4-(phenylthio)butyl]-1H-imidazo[4,5-c]quinolin-4-amine]	0.12	0.12	118 to 120	
CS(=O)(=O)CCCCCn1c(C(F)(F)F)nc2c(N)nc3ccccc3c21 [Example 71, 1-[5-(methylsulfonyl)pentyl]-2-(trifluoromethyl)-1H-imidazo[4,5-c]quinolin-4-amine]	30		192 to 195	*
CCc1nc2c(N)nc3ccccc3c2n1CCS(C)(=O)=O [Example 35, 2-ethyl-1-[2-(methylsulfonyl)ethyl]-1H-imidazo[4,5-c]quinolin-4-amine]	1.11	3.33	222 to 225	
Nc1nc2ccccc2c2c1ncn2CCCCSc1ccccc1 [Example 9, 1-[4-(phenylthio)butyl]-1H-imidazo[4,5-c]quinolin-4-amine]	3.33	3.33	158 to 160	
CS(=O)(=O)CCCCn1cnc2c(N)nc3ccccc3c21 [Example 8, 1-[4-(methylsulfonyl)butyl]-1H-imidazo[4,5-c]quinolin-4-amine]	10		203 to 204	*
CCCc1nc2c(N)nc3ccccc3c2n1CCCCCS(C)(=O)=O [Example 21, 1-[5-(methylsulfonyl)pentyl]-2-propyl-1H-imidazo[4,5-c]quinolin-4-amine]	0.12	0.37	179 to 181	
Nc1nc2ccccc2c2c1ncn2CCSc1ccccc1 [Example 6, 1-[2-(phenylthio)ethyl]-1H-imidazo[4,5-c]quinolin-4-amine]	3.33	10	233 to 235	
CCCCc1nc2c(N)nc3ccccc3c2n1CCS(C)(=O)=O [Example 67, 2-butyl-1-[2-(methylsulfonyl)ethyl]-1H-imidazo[4,5-c]quinolin-4-amine]	0.01	0.04	226 to 228	
CSCCCn1c(C)nc2c(N)nc3ccccc3c21 [Example 22, 2-methyl-1-[3-(methylthio)propyl]-1H-imidazo[4,5-c]quinolin-4-amine]	0.37	1.11	199 to 202	
CCc1nc2c(N)nc3ccccc3c2n1CCCSC [Example 24, 2-ethyl-1-[3-(methylthio)propyl]-1H-imidazo[4,5-c]quinolin-4-amine]	0.12	0.37	210 to 212	
CCCCc1nc2c(N)nc3ccccc3c2n1CCCCS(=O)(=O)c1ccccc1 [Example 3, 2-butyl-1-[4-(phenylsulfonyl)butyl]-1H-imidazo[4,5-c]quinolin-4-amine]	0.04	0.12	179 to 180	
COCCc1nc2c(N)nc3ccccc3c2n1CCCCCS(=O)(=O)c1ccccc1 [Example 70, 2-(2-methoxyethyl)-1-[5-(phenylsulfonyl)pentyl]-1H-imidazo[4,5-c]quinolin-4-amine]	0.01	0.01	172 to 175	
Cc1nc2c(N)nc3ccccc3c2n1CCCC[S+](C)[O-] (stereo not drawn) [Example 27, 2-methyl-1-[4-(methylsulfinyl)butyl]-1H-imidazo[4,5-c]quinolin-4-amine]	3.33	10	184 to 187	
Nc1nc2ccccc2c2c1ncn2CCCCCS(=O)(=O)c1ccccc1 [Example 69, 1-[5-(phenylsulfonyl)pentyl]-1H-imidazo[4,5-c]quinolin-4-amine]	1.11	1.11	171 to 172	
Cc1nc2c(N)nc3ccccc3c2n1CCS(C)(=O)=O [Example 33, 2-methyl-1-[2-(methylsulfonyl)ethyl]-1H-imidazo[4,5-c]quinolin-4-amine]	3.33	10	242 to 245	
CCCCc1nc2c(N)nc3ccccc3c2n1CCCS(C)(=O)=O [Example 19, 2-butyl-1-[3-(methylsulfonyl)propyl]-1H-imidazo[4,5-c]quinolin-4-amine]	0.04	0.37	233 to 236	
CSCCCCn1cnc2c(N)nc3ccccc3c21 [Example 10, 1-[4-(methylthio)butyl]-1H-imidazo[4,5-c]quinolin-4-amine]	1.11	1.11	163 to 164	
CCc1nc2c(N)nc3ccccc3c2n1CCCS(C)(=O)=O [Example 25, 2-ethyl-1-[3-(methylsulfonyl)propyl]-1H-imidazo[4,5-c]quinolin-4-amine]	0.37	3.33	> 250	
Cc1nc2c(N)nc3ccccc3c2n1CCCCCS(C)(=O)=O [Example 12, 2-methyl-1-[5-(methylsulfonyl)pentyl]-1H-imidazo[4,5-c]quinolin-4-amine]	0.12	10	235 to 240	
CSCCn1c(C)nc2c(N)nc3ccccc3c21 [Example 32, 2-methyl-1-[2-(methylthio)ethyl]-1H-imidazo[4,5-c]quinolin-4-amine]	0.12	0.12	193 to 195	
CCCCc1nc2c(N)nc3ccccc3c2n1CCCCSC [Example 4, 2-butyl-1-[4-(methylthio)butyl]-1H-imidazo[4,5-c]quinolin-4-amine]	0.01	0.01	127 to 130	
CCCCc1nc2c(N)nc3ccccc3c2n1CCCCS(=O)(=O)c1ccc(F)cc1F [Example 38, 2-butyl-1-{4-[(2,4-difluorophenyl)sulfonyl]butyl}-1H-imidazo[4,5-c]quinolin-4-amine]	0.37	1.11	190 to 193	
Cc1nc2c(N)nc3ccccc3c2n1CCCS(C)(=O)=O [Example 23, 2-methyl-1-[3-(methylsulfonyl)propyl]-1H-imidazo[4,5-c]quinolin-4-amine]	3.33	10	225 to 228	
